Like-named read-outs stand apart in the source and are kept apart here.
What was measured:
[1] = tested on: oxotremorine-induced body tremor; assay: Oxotremorine antagonist assay (body tremor); assay type: in vivo, mice; settings: Mus musculus, ip; read-out: Oxot. Antagonist Tremor (ED50)
Description: Oxotremorine antagonist assays were performed on groups of six mice weighing 18-22 g. Each was dosed intraperitoneally with the test compound prepared in 0.25% methylcellulose and were placed in individual cages. Twenty minutes later the mice were injected subcutaneously with 0.5 mg/kg of oxotremorine dissolved in saline. Ten minutes later the mice were scored for body tremor. Doses of the compound under study began at 100 mg/kg and were decreased at a 0.5 log interval until no responders were obtained.

[2] = tested on: amnesia produced by scopolamine; assay: Antagonism of scopolamine-induced amnesia, passive avoidance; assay type: in vivo; settings: i.p. test compound, 1 mg/kg s.c. scopolamine hydrobromide, mouse step through passive avoidance
Text: For antagonism of amnesia produced by scopolamine a one trial, step through passive avoidance paradigm was used. In this procedure a mouse was placed on a square platform adjoining a darkened chamber. The mouse could enter the chamber through a hole above the platform. Following placement on the platform, the mouse was enclosed by a clear plexiglas cover which mildly restricted movement, limiting the animal to turning around and partial rearing. A sliding door was opened after this, exposing the entrance to the chamber. A timer was started at the same time the door was opened, in order to record latency to enter the chamber. Upon complete entry into the darkened box, the door was closed behind the mouse and a 1 mA, 2 sec, direct current shock applied to the feet of the mouse through the grid floor. The mouse was immediately removed from the chamber and returned to a 24 hr group holding cage.
Drug testing involved intraperitoneal injection of the test compound followed 15 min later by subcutaneous injection of 1 mg/kg scopolamine hydrobromide. […] The latency for each mouse to enter the chamber was recorded, with a cut-off at 180 sec.
Median group latencies to enter the chamber during both training and testing were recorded and a Wilcoxon rank sum test applied to data comparing the parallel "scopolamine only" group with all drug combination groups on testing. […]

CNS cholinergic receptor [3] = settings: tritiated quinuclidine benzylate (QNB); read-out: CNS Cholinergic Receptor Binding Assays K1 QNB
CNS cholinergic receptor [4] = assay: CNS cholinergic receptor binding, oxotremorine M ligand; settings: tritiated oxotremorine M; read-out: CNS Cholinergic Receptor Binding Assays K1 Oxotremorine
HCl-induced writhing = assay: HCl writhing protection (analgesic activity); assay type: in vivo, CF1 mice; settings: Mus musculus, sc; ED50; s.c. in CF1 mice, 30 min before i.p. 0.15% HCl; read-out: CNS Id (ED50 mg/kg) HCl Writh. Protect
Description: For determination of analgesic activity, the test compound was injected subcutaneously into a group of four CF1 mice. Thirty minutes later the mice were injected i.p. with 0.15% HCl, 10 ml./kg. Mice were then placed in plastic boxes and observed for fifteen minutes to record the number of animals failing to writhe.

[5] = versus prior oxotremorine compounds; U.S. Pat. No. 3,925,411; cited from earlier work
cholinergic mechanism = settings: extremely low doses; cited from earlier work

**Q.** With `Cn1ccn(CC#CCN2CCCC2)c1=O` [Compound 36, 1,3-Dihydro-1-methyl-3-[4-(1-pyrrolidinyl)-2-butynyl]-2H-imidazol-2-one] as the compound, how does the ED50 [1] read?
**A.** > 10 mg/kg

**Q.** And the “antagonism of amnesia produced by scopolamine” value [2]?
**A.** the most active

**Q.** And the Ki (CNS cholinergic receptor [3])?
**A.** 510 nM

**Q.** What about the Ki (CNS cholinergic receptor [4]) of the same compound?
**A.** 7 nM

**Q.** And the ED50 (HCl-induced writhing)?
**A.** 1.3 mg/kg

**Q.** With `NC(=O)N1CCC[C@@H]1C#CCN1CCCC1` [Compound 51H, (R)-2-[3-(1-pyrrolidinyl)-1-propynyl]-1-pyrrolidinecarboxamide] as the compound, how does the ED50 [1] read?
**A.** > 100 mg/kg

**Q.** What about the Ki (CNS cholinergic receptor [3]) of the same compound?
**A.** > 10000 nM

**Q.** And the Ki (CNS cholinergic receptor [4])?
**A.** 440 nM

**Q.** And the ED50 (HCl-induced writhing)?
**A.** > 50 mg/kg

**Q.** With `N#CN1CCC[C@@H]1C#CCN1CCCC1` [Compound 51I, (R)-2-[3-(1-pyrrolidinyl)-1-propynyl]-1-pyrrolidinecarbonitrile] as the compound, how does the ED50 [1] read?
**A.** > 30 mg/kg

**Q.** And the Ki (CNS cholinergic receptor [3])?
**A.** > 10000 nM

**Q.** What about the Ki (CNS cholinergic receptor [4]) of the same compound?
**A.** 310 nM

**Q.** And the ED50 (HCl-induced writhing)?
**A.** 25 mg/kg

**Q.** Which ED50 [1] does the source give for `COC(=O)N1CCC[C@@H]1C#CCN1CCCC1` [Compound 51J, (R)-Methyl 2-[3-(1-pyrrolidinyl)-1-propynyl]-1-pyrrolidinecarboxylate] here?
**A.** > 100 mg/kg

**Q.** What about the Ki (CNS cholinergic receptor [3]) of the same compound?
**A.** 460 nM

**Q.** And the Ki (CNS cholinergic receptor [4])?
**A.** 57 nM

**Q.** What about the ED50 (HCl-induced writhing) of the same compound?
**A.** 11 mg/kg

**Q.** Which results are given for `COC(=O)N1CCC[C@H]1C#CCN1CCCC1` [Compound 51K, (S)-Methyl 2-[3-(1-pyrrolidinyl)-1-propynyl]-1-pyrrolidinecarboxylate]?
**A.** ED50 [1]: 97 mg/kg; Ki (CNS cholinergic receptor [3]): 220 nM; Ki (CNS cholinergic receptor [4]): 130 nM; ED50 (HCl-induced writhing): > 50 mg/kg

**Q.** For `CCOC(=O)N1CCC[C@@H]1C#CCN1CCCC1` [Compound 51L, (R)-Ethyl 2-[3-(1-pyrrolidinyl)-1-propynyl]-1-pyrrolidinecarboxylate], which ED50 [1] is on record?
**A.** > 100 mg/kg

**Q.** And the Ki (CNS cholinergic receptor [3])?
**A.** 760 nM

**Q.** And the Ki (CNS cholinergic receptor [4])?
**A.** 50 nM

**Q.** What about the ED50 (HCl-induced writhing) of the same compound?
**A.** > 50 mg/kg

**Q.** Which half life [5] does the source give for `O=C1CCCN1CCC#CCN1CCCC1` [N-(5-pyrrolidino-3-pentynyl)-pyrrolidin-2-one] here?
**A.** increased half life over prior oxotremorine compounds

**Q.** Which “tremors and spasticity in laboratory animals” value (cholinergic mechanism) does the source give for `O=C1CCCN1CC#CCN1CCCC1` [oxotremorine, 1-[4-(1-pyrrolidinyl-2-butynyl)-2-pyrrolidinone]] here?
**A.** induces tremors and spasticity in laboratory animals
